From ChEMBL document CHEMBL1275575, “Susceptibility of Mycobacterium bovis BCG vaccine strains to antituberculous antibiotics” (Antimicrob Agents Chemother, 2009) come the findings set out here.

SMILES strings stand for the structures.

This data set relates to Homo sapiens. Nature of the data set: Drug level in human serum at 10 mg/kg. Type of data set: ADME, organism-based. The arrangement: dose 10 mg/kg. As to conditions: in vivo.

On to `NNC(=O)c1ccncc1` [ISONIAZID], for which the Drug uptake amounted to 0.4 µg/mL.
